Reference: patent US10149879B2 (priority 2014, dated 2018)

Experiments:
L6-myotubes = test: Anti-diabetic activity (glucose consumption) in L6-myotubes; assay type: cell-based; design: Anti-diabetic activity (glucose consumption): unit not given here; details: for Anti-diabetic activity (glucose consumption): L6-myotubes, control 1.00
βTC6 insulinoma cell [1] = test: Cell viability assay in βTC6 insulinoma cell line; assay type: cell-based; details: βTC6, control 100.00
Source text: Cell Viability Assay in βTC6 Insulinoma Cell Lime Following—

βTC6 insulinoma cell [2] = test: Anti-oxidant activity in βTC6 insulinoma cell challenged with H2O2; assay type: cell-based; design: Anti-oxidant activity, cells challenged with H2O2: unit not given here; details: for Anti-oxidant activity, cells challenged with H2O2: βTC6
Source text: Anti-Oxidant Activity in βTC6 Insulinoma Cell Challenged with H2O2 Berberin and Quercetin—
Anti-Oxidant Activity in βTC6 Insulinoma Cell Challenged with H2O2 Berberin and Palmatine—

3T3-L1 cells [3] = test: Anti-oxidant activity in 3T3-L1 cells challenged with H2O2; assay type: cell-based; design: Anti-oxidant activity, cells challenged with H2O2: scale not given here; details: for Anti-oxidant activity, cells challenged with H2O2: 3T3-L1; for protection against H2O2 induced cellular oxidative damage: 3T3-L1 cells
Source text: Anti-Oxidant Activity in 3T3-L1 Cells Challenged with H2O2 Berberin and Palmatine
Anti-Oxidant Activity in 3T3-L1 Cells Challenged with H2O2 Berberin and Quercetin

L6 cells = test: Anti-oxidant activity in L6 cells challenged with H2O2; assay type: cell-based; design: Anti-oxidant activity, cells challenged with H2O2: unit not given here; details: for Anti-oxidant activity, cells challenged with H2O2: L6; for protection against H2O2 induced cellular oxidative damage: L6 cells
Source text: Anti-Oxidant Activity in L6 Cells Challenged with H2O2 Berberin and Palmatine
Anti-Oxidant Activity in L6 Cells Challenged with H2O2—Berberin and Quercetin

3T3-L1 cells [4] = test: Cell viability assay in 3T3-L1 cells; details: for Cell viability: 3T3-L1, control 100.00
[5] = comparison with positive standard

“Insulin: reference line in the L6-myotubes glucose consumption table” was tested, and the “Anti-diabetic activity (glucose consumption)” value (shortened to “Anti-diabetic activity”) (L6-myotubes; Insulin line, concentration not given) was 3.70 ± 0.15.

`COc1cc2c(cc1OC)-c1cc3ccc(OC)c(OC)c3c[n+]1CC2` [Palmatine] was tested, and the Cell viability (βTC6 insulinoma cell [1]; 1 pM) was 97.96 ± 1.10, the Cell viability (βTC6 insulinoma cell [1]; 10 pM) was 97.50 ± 2.05 and the Cell viability (βTC6 insulinoma cell [1]; 100 pM) was 96.52 ± 2.70. It also gave a Cell viability (βTC6 insulinoma cell [1]; 1 nM) of 94.80 ± 1.32, a Cell viability (βTC6 insulinoma cell [1]; 10 nM) of 91.66 ± 1.60 and a Cell viability (βTC6 insulinoma cell [1]; 100 nM) of 84.45 ± 1.30. The Cell viability (βTC6 insulinoma cell [1]; 1 μM) was 83.20 ± 1.90, the Cell viability (βTC6 insulinoma cell [1]; 10 μM) was 81.98 ± 1.70 and the “Anti-oxidant activity, cells challenged with H2O2” value (shortened to “Anti-oxidant activity … with H2O2”) (βTC6 insulinoma cell [2]; Co-incubated, 1 pM, control 55.54) was 56.95 ± 3.60. The “Anti-oxidant activity … with H2O2” value (βTC6 insulinoma cell [2]; Co-incubated, 10 pM, control 55.54) was 57.04 ± 2.00, the “Anti-oxidant activity … with H2O2” value (βTC6 insulinoma cell [2]; Co-incubated, 0.1 nM, control 55.54) was 60.10 ± 1.41 and the “Anti-oxidant activity … with H2O2” value (βTC6 insulinoma cell [2]; Co-incubated, 1 nM, control 55.54) was 61.75 ± 2.16. For the same molecule, the “Anti-oxidant activity … with H2O2” value (βTC6 insulinoma cell [2]; Co-incubated, 10 nM, control 55.54) was 65.83 ± 0.81, the “Anti-oxidant activity … with H2O2” value (βTC6 insulinoma cell [2]; Pre-incubated, 1 pM, control 55.54) was 55.32 ± 1.48 and the “Anti-oxidant activity … with H2O2” value (βTC6 insulinoma cell [2]; Pre-incubated, 10 pM, control 55.54) was 61.67 ± 2.10. The “Anti-oxidant activity … with H2O2” value (βTC6 insulinoma cell [2]; Pre-incubated, 0.1 nM, control 55.54) was 65.18 ± 1.95, the “Anti-oxidant activity … with H2O2” value (βTC6 insulinoma cell [2]; Pre-incubated, 1 nM, control 55.54) was 67.05 ± 2.40 and the “Anti-oxidant activity … with H2O2” value (βTC6 insulinoma cell [2]; Pre-incubated, 10 nM, control 55.54) was 69.58 ± 2.55. For the same molecule, the “anti-oxidant activity” value (βTC6 insulinoma cell [2]; βTC6 cells challenged with hydrogen peroxide) was “potent anti-oxidant activity”, the “protection against H2O2 induced cellular oxidative damage” value (from here on “protection”) (βTC6 insulinoma cell [2]; βTC6 insulinoma cells) was “Mild Protection” and the “Anti-oxidant activity … with H2O2” value (3T3-L1 cells [3]; Co-incubated, 10 pM, control 50.00) was 54.85 ± 2.20. The “Anti-oxidant activity … with H2O2” value (3T3-L1 cells [3]; Co-incubated, 100 pM, control 50.00) was 57.18 ± 1.20, the “Anti-oxidant activity … with H2O2” value (3T3-L1 cells [3]; Co-incubated, 1 nM, control 50.00) was 59.87 ± 2.70 and the “Anti-oxidant activity … with H2O2” value (3T3-L1 cells [3]; Co-incubated, 10 nM, control 50.00) was 63.00 ± 1.10. For the same molecule, the “Anti-oxidant activity … with H2O2” value (3T3-L1 cells [3]; Co-incubated, 100 nM, control 50.00) was 65.75 ± 1.40, the “Anti-oxidant activity … with H2O2” value (3T3-L1 cells [3]; Pre-incubated, 10 pM, control 50.00) was 53.18 ± 3.25 and the “Anti-oxidant activity … with H2O2” value (3T3-L1 cells [3]; Pre-incubated, 100 pM, control 50.00) was 55.13 ± 1.50. The “Anti-oxidant activity … with H2O2” value (3T3-L1 cells [3]; Pre-incubated, 1 nM, control 50.00) was 57.00 ± 1.25, the “Anti-oxidant activity … with H2O2” value (3T3-L1 cells [3]; Pre-incubated, 10 nM, control 50.00) was 61.40 ± 0.25 and the “Anti-oxidant activity … with H2O2” value (3T3-L1 cells [3]; Pre-incubated, 100 nM, control 50.00) was 67.25 ± 2.25. The “protection” value (3T3-L1 cells [3]; pM-nM doses) was “mild protection”, the “Anti-oxidant activity … with H2O2” value (L6 cells; Co-incubated, 10 pM, control 60.10) was 56.13 ± 6.40 and the “Anti-oxidant activity … with H2O2” value (L6 cells; Co-incubated, 100 pM, control 60.10) was 60.50 ± 5.50. The “Anti-oxidant activity … with H2O2” value (L6 cells; Co-incubated, 1 nM, control 60.10) was 63.91 ± 5.04, the “Anti-oxidant activity … with H2O2” value (L6 cells; Co-incubated, 10 nM, control 60.10) was 67.53 ± 8.12 and the “Anti-oxidant activity … with H2O2” value (L6 cells; Co-incubated, 100 nM, control 60.10) was 71.70 ± 6.16. For the same molecule, the “Anti-oxidant activity … with H2O2” value (L6 cells; Pre-incubated, 10 pM, control 60.10) was 58.70 ± 4.70, the “Anti-oxidant activity … with H2O2” value (L6 cells; Pre-incubated, 100 pM, control 60.10) was 63.30 ± 3.16 and the “Anti-oxidant activity … with H2O2” value (L6 cells; Pre-incubated, 1 nM, control 60.10) was 66.12 ± 5.85. For the same molecule, the “Anti-oxidant activity … with H2O2” value (L6 cells; Pre-incubated, 10 nM, control 60.10) was 66.70 ± 3.12, the “Anti-oxidant activity … with H2O2” value (L6 cells; Pre-incubated, 100 nM, control 60.10) was 70.00 ± 5.95 and the “protection” value (L6 cells; pM-nM doses) was “mild protection”. The “Anti-diabetic activity” value (L6-myotubes; 1 nM) was 1.58 ± 0.10, the “Anti-diabetic activity” value (L6-myotubes; 5 nM) was 1.78 ± 1.10 and the “Anti-diabetic activity” value (L6-myotubes; 25 nM) was 2.12 ± 0.09. For the same molecule, the “Anti-diabetic activity” value (L6-myotubes; 125 nM) was 2.35 ± 0.12, the “Anti-diabetic activity” value (L6-myotubes; 625 nM) was 2.60 ± 0.10 and the “glucose consumption” value (L6-myotubes; differentiated L6-myotubes, dose dependent) was “accelerated glucose consumption”. The Cell viability (3T3-L1 cells [4]; 10 pM) was 100.00 ± 0.10, the Cell viability (3T3-L1 cells [4]; 100 pM) was 99.99 ± 0.54 and the Cell viability (3T3-L1 cells [4]; 1 nM) was 99.45 ± 0.48. The Cell viability (3T3-L1 cells [4]; 10 nM) was 98.30 ± 1.80, the Cell viability (3T3-L1 cells [4]; 100 nM) was 98.90 ± 1.06 and the Cell viability (3T3-L1 cells [4]; 1 μM) was 95.15 ± 1.58. The Cell viability (3T3-L1 cells [4]; 10 μM) was 89.26 ± 1.30, the Cell viability (3T3-L1 cells [4]; 100 μM) was 83.10 ± 1.67 and the “toxicity to the cell” value (3T3-L1 cells [4]; 3T3-L1 cells, 1 μM) was “non-toxic”.

In the case of `O=c1c(O)c(-c2ccc(O)c(O)c2)oc2cc(O)cc(O)c12` [Quercetin], the “Anti-oxidant activity … with H2O2” value (βTC6 insulinoma cell [2]; Co-incubated, 0.1 pM, control 55.64) is reported as 60.31 ± 2.71, the “Anti-oxidant activity … with H2O2” value (βTC6 insulinoma cell [2]; Co-incubated, 1 pM, control 55.64) is reported as 67.11 ± 2.71 and the “Anti-oxidant activity … with H2O2” value (βTC6 insulinoma cell [2]; Co-incubated, 10 pM, control 55.64) is reported as 70.10 ± 2.30. For the same molecule, the “Anti-oxidant activity … with H2O2” value (βTC6 insulinoma cell [2]; Co-incubated, 100 pM, control 55.64) was 80.72 ± 1.20, the “Anti-oxidant activity … with H2O2” value (βTC6 insulinoma cell [2]; Co-incubated, 1 nM, control 55.64) was 90.44 ± 1.94 and the “Anti-oxidant activity … with H2O2” value (βTC6 insulinoma cell [2]; Pre-incubated, 0.1 pM, control 55.64) was 64.00 ± 2.10. For the same molecule, the “Anti-oxidant activity … with H2O2” value (βTC6 insulinoma cell [2]; Pre-incubated, 1 pM, control 55.64) was 68.38 ± 1.79, the “Anti-oxidant activity … with H2O2” value (βTC6 insulinoma cell [2]; Pre-incubated, 10 pM, control 55.64) was 77.51 ± 2.06 and the “Anti-oxidant activity … with H2O2” value (βTC6 insulinoma cell [2]; Pre-incubated, 100 pM, control 55.64) was 81.63 ± 1.50. The “Anti-oxidant activity … with H2O2” value (βTC6 insulinoma cell [2]; Pre-incubated, 1 nM, control 55.64) was 87.59 ± 1.95, the “Anti-oxidant activity … with H2O2” value (3T3-L1 cells [3]; Co-incubated, 0.1 pM, control 50.00) was 57.30 ± 1.70 and the “Anti-oxidant activity … with H2O2” value (3T3-L1 cells [3]; Co-incubated, 1 pM, control 50.00) was 65.00 ± 2.75. The “Anti-oxidant activity … with H2O2” value (3T3-L1 cells [3]; Co-incubated, 10 pM, control 50.00 ± 0.40) was 68.01 ± 2.75, the “Anti-oxidant activity … with H2O2” value (3T3-L1 cells [3]; Co-incubated, 100 pM, control 50.00 ± 0.40) was 78.70 ± 3.50 and the “Anti-oxidant activity … with H2O2” value (3T3-L1 cells [3]; Co-incubated, 1 nM, control 50.00 ± 0.40) was 88.40 ± 1.90. The “Anti-oxidant activity … with H2O2” value (3T3-L1 cells [3]; Pre-incubated, 0.1 pM, control 50.00) was 61.00 ± 3.00, the “Anti-oxidant activity … with H2O2” value (3T3-L1 cells [3]; Pre-incubated, 1 pM, control 50.00) was 65.00 ± 1.70 and the “Anti-oxidant activity … with H2O2” value (3T3-L1 cells [3]; Pre-incubated, 10 pM, control 50.00 ± 0.40) was 75.15 ± 2.99. For the same molecule, the “Anti-oxidant activity … with H2O2” value (3T3-L1 cells [3]; Pre-incubated, 100 pM, control 50.00 ± 0.40) was 88.60 ± 2.60, the “Anti-oxidant activity … with H2O2” value (3T3-L1 cells [3]; Pre-incubated, 1 nM, control 50.00 ± 0.40) was 94.15 ± 1.70 and the “protection” value (3T3-L1 cells [3]; [5]) was “superior even at lower concentration”. The “Anti-oxidant activity … with H2O2” value (L6 cells; Co-incubated, 0.1 pM, control 61.10) was 57.50 ± 1.80, the “Anti-oxidant activity … with H2O2” value (L6 cells; Co-incubated, 1 pM, control 61.10) was 65.05 ± 2.80 and the “Anti-oxidant activity … with H2O2” value (L6 cells; Co-incubated, 10 pM, control 61.10) was 70.36 ± 2.96. For the same molecule, the “Anti-oxidant activity … with H2O2” value (L6 cells; Co-incubated, 100 pM, control 61.10) was 78.18 ± 2.99, the “Anti-oxidant activity … with H2O2” value (L6 cells; Co-incubated, 1 nM, control 61.10) was 88.64 ± 1.99 and the “Anti-oxidant activity … with H2O2” value (L6 cells; Pre-incubated, 0.1 pM, control 61.10) was 63.60 ± 1.50. The “Anti-oxidant activity … with H2O2” value (L6 cells; Pre-incubated, 1 pM, control 61.10) was 68.02 ± 1.40, the “Anti-oxidant activity … with H2O2” value (L6 cells; Pre-incubated, 10 pM, control 61.10) was 75.12 ± 3.50 and the “Anti-oxidant activity … with H2O2” value (L6 cells; Pre-incubated, 100 pM, control 61.10) was 87.90 ± 1.60. For the same molecule, the “Anti-oxidant activity … with H2O2” value (L6 cells; Pre-incubated, 1 nM, control 61.10) was 95.15 ± 0.99 and the “protection” value (L6 cells; [5]) was “potent protection”.
